Reference: article PMC12745361, “Dysadherin/YAP axis fuels stem plasticity and immune escape in liver cancer” (Signal Transduction and Targeted Therapy, 2025)

Assays:
Format in all cases: cell-based, human
[1] = tested on: PLC/PRF/5 cells; assay: Immunoblot of FAK/YAP signalling and pluripotency factors in dysadherin-OE PLC/PRF/5 cells
Method: (§1) Cells were lysed in RIPA buffer for 20 minutes on ice, and protein concentrations were measured using a bicinchoninic acid (BCA) assay kit (Thermo Fisher Scientific). The proteins were denatured with SDS (Sigma‒Aldrich) and by boiling at 95 °C for 5 minutes. Equal amounts (10 µg) were resolved by 10% SDS-PAGE and transferred to PVDF membranes (Millipore, Burlington, MA, USA). The membranes were blocked with 10% bovine serum albumin (Sigma‒Aldrich) and incubated overnight at 4 °C with the indicated primary antibodies. […] After washing, membranes were incubated with HRP-conjugated secondary antibodies, and signals were developed using SuperSignal™ West Dura Substrate (Thermo Fisher Scientific) and visualized using a Digital 8 Imaging System (ProteinSimple, San Jose, CA, USA). The antibodies used for immunoblot analyses are listed in Supplementary Table S3.

[2] = tested on: PLC/PRF/5 cells; assay: Sphere formation and Aldefluor assays, dysadherin-OE PLC/PRF/5; conditions: dysadherin-OE PLC/PRF/5 cells; sphere formation, Aldefluor, CSC gene expression
Method: The ALDH enzymatic activity of the cells was determined by ALDEFLUOR kit (Stem Cell Technologies, Vancouver, BC, Canada). Flow cytometric detection of cells expressing ALDH was performed. Diethylaminobenzaldehyde (DEAB), a specific ALDH inhibitor, was utilized to stain negative control cells.
To examine their self-renewal ability, cells were seeded at various densities in poly-HEMA-coated plates (Sigma‒Aldrich, St. Louis, MO, USA) under non-adherent, sphere–forming condition. After incubation, spheres were counted and measured (n = 3/group). Sphere viability was assessed using the CellTiter-Blue Cell Viability Assay (Sigma-Aldrich) according to the manufacturer’s instructions. Fluorescence was measured at 560 nm excitation and 590 nm emission using the Varioskan LUX multimode reader (Thermo Fisher Scientific, Waltham, MA, USA).

[3] = tested on: PLC/PRF/5 cells; assay: PD-L1 immunoblot in dysadherin-OE PLC/PRF/5 cells
Method: as §1

[4] = tested on: OCT4 promoter; assay: OCT4 promoter luciferase reporter assay; conditions: dysadherin-OE PLC/PRF/5 cells, verteporfin 1.5 μmol/L, 24 h, normalized to β-galactosidase
Method: Luciferase activity driven by the OCT4 promoter was measured using a reporter vector (GeneCopoeia, Rockville, MD, USA). For transfection, plasmid DNA, β-galactosidase control, and Lipofectamine (Sigma-Aldrich) were mixed at 1 μg:1 μg:2 μL in 300 μL of OptiMEM (Thermo Fisher Scientific, Waltham, MA, USA) medium per well. Following transfection, cells were treated with verteporfin (1.5 μmol/L) and incubated for 24 h, after which cell lysates were prepared. Luciferase readout was performed using Renilla luciferase assay system (Promega, Madison, WI, USA) and quantified with a SpectraMax L luminometer (Molecular Devices, San Jose, CA, USA). Relative luminescence values were normalized to β-galactosidase activity.

[5] = tested on: Jurkat T cells co-cultured with PLC/PRF/5 cells; assay: Jurkat T-cell co-culture assay (CD69 flow cytometry, IFN-γ ELISA); conditions: Jurkat cells co-cultured with dysadherin-OE PLC/PRF/5 cells, CD3/CD28 stimulation, 24 hours
Method: The rate of T-cell activation after co-culture with the HCC cells were evaluated by direct co-culture system. The assay was performed in 24-well plates. HCC cells (1x10^4) were seeded in the plates and cultured for 24 hours to allow attachment. The cells were transfected with or without YAP5SA and treated with or without verteporfin. Following 24 hours of treatment, the tumor cells were incubated for an additional 24 hours before introducing Jurkat cells (4x10^5). After 1hour of stabilization, T-cell activation was induced by adding soluble anti-CD3 (2 μg/mL, eBioscience, San Diego, CA, USA), soluble anti-CD28 (1 μg/mL, eBioscience), and anti-mouse Ig (5 μg/mL, Southern Biotech, Birmingham, AL, USA). After 24 hours of co-culture, the supernatant was collected for an IFN-γ ELISA assay, and Jurkat cells were harvested for FACS analysis to assess T-cell activation. The cells were stained with the PE-cy7 conjugated anti-CD69 antibody in FACS buffer for at least 1hour at 4 °C in the dark and analyzed on BD AccuriTM flow cytometer and data were processed using FlowJo software.
The concentration of IFN-γ in cell-free supernatants was measured using a Human IFN-γ ELISA Kit (R&D Systems, Minneapolis, MN, USA), following the manufacturer’s instructions.

[6] = tested on: PLC/PRF/5 cells; assay: Clonogenic survival assay, dysadherin-OE PLC/PRF/5; conditions: dysadherin-OE PLC/PRF/5 cells; 200 cells/well, 14 days, n = 3/group
Method: A clonogenic assay was performed as previously described.[43],[44] Briefly, cells were seeded in 12-well plates (200 cells/well) and cultured for 14 days. Colonies >50 μm in diameter were counted after crystal violet staining (n = 3/group).

[7] = tested on: PLC/PRF/5 cells; assay: Sorafenib resistance (viability, Annexin V/PI apoptosis) in dysadherin-OE PLC/PRF/5 cells; conditions: dysadherin-OE PLC/PRF/5 cells with sorafenib
Method: The rate of cell apoptosis was quantified using apoptosis assays performed with an Annexin V-Fluorescein isothiocyanate (FITC) Apoptosis Detection Kit I. (BD Biosciences, San Jose, CA, USA). Cells were washed twice with cold PBS to yield single-cell suspensions at a concentration of 1×10⁶ cells/mL. The suspension was transferred to a tube containing 5 µL of FITC, annexin V, and propidium iodide (PI). After gentle vortexing, the mixture was incubated at room temperature for 15 min in the dark. After incubation, 400 µL of 1 x binding buffer was added to each sample prior to flow cytometry analysis. FACS analysis was performed using a BD AccuriTM flow cytometer (BD Biosciences). FACS data were analyzed using FlowJo software (TreeStar, San Carlos, CA, USA) as described in our previous report.

[8] = tested on: PLC/PRF/5 cells; assay: Immunosuppressive gene expression in dysadherin-OE PLC/PRF/5 cells
Method: Total RNA was isolated using RNAiso reagent (Takara, Shiga, Japan), and purity was confirmed by 260/280 and 260/230 ratios. cDNA templates were synthesized from 0.5 μg of total RNA using the PrimeScriptTM 1st strand cDNA Synthesis Kit (Takara) with random primers. qPCR was performed using Power SYBR Green PCR Master Mix and Step-One Real-time PCR systems (Applied Biosystems, Foster City, CA, USA). The primers used are listed in Supplementary Table S2.

OCT4 promoter activity increased by dysadherin OE [4]	Molecule	dysadherin-induced increase in FAK phosphorylation [1]	dysadherin-induced increase in YAP activation [1]	dysadherin-induced increase in pluripotency gene expression [1]	dysadherin OE-induced suppression of LATS1/2 phosphorylation ([1]; treatment with a FAK inhibitor)	CSC features [2]	upregulation of PD-L1 expression by dysadherin OE [3]	dysadherin OE-mediated suppression of CD69 upregulation and IFN-γ release [5]	YAP activity [1]	dysadherin OE-induced p-FAK, YAP activation and pluripotency markers ([1]; immunoblot)	clonogenicity [6]	dysadherin OE-induced resistance to sorafenib [7]	expression of immunosuppressive genes [8]
–	COc1ccc([C@H](CC(=O)O)N2CCN(CCCc3ccc4c(n3)NCCC4)C2=O)cn1 [MK-0429]	specifically suppressed	specifically suppressed	specifically suppressed	–	–	–	–	–	–	–	–	–
–	CNC(=O)c1ccccc1Nc1cc(Nc2ccc(N3CCOCC3)cc2OC)ncc1C(F)(F)F [PND-1186]	specifically suppressed	specifically suppressed	specifically suppressed	reversed	–	–	–	–	–	–	–	–
suppressed	Verteporfin	–	–	–	–	suppressed	reversed	reversed	decreased	reversed these effects	suppressed	reversed	markedly reduced
